Data published in paper PMC7126098 (Bioorganic & Medicinal Chemistry, 2019).

How the values were obtained:
[1] = system: herpes simplex virus-1 (KOS strain); assay: Inhibition of virus-induced cytopathicity, HSV-1; format: cell-based; conditions: anti-HSV screening in HEL cells
[2] = system: herpes simplex virus-2 (G strain); assay: Inhibition of virus-induced cytopathicity, HSV-2; format: cell-based; conditions: Human alphaherpesvirus 2, HEL, read-out: EC50 HSV-2
[3] = system: eight human cancer cell lines; assay: Cytostatic activity against panel of human cell lines; format: cell-based; conditions: for IC50: Homo sapiens, read-out: cytostatic activity (IC50 range over cell lines)
[4] = Stability towards light and air; format: physicochemical
[5] = system: pancreatic adenocarcinoma Capan-1 cell line; assay: Cytostatic activity against Capan-1; format: cell-based, human
[6] = system: human cytomegalovirus (HCMV) (AD-169 strain and Davis strain); assay: Inhibition of virus-induced cytopathogenicity, HCMV in HEL cells; format: cell-based
[7] = system: HSV-1 TK; conditions: relative to ACV; cited from earlier work
[8] = system: cell culture; conditions: at concentrations up to 100 µg/mL; cited from earlier work

O=c1c2ncn(CCC(CO)CO)c2nc2[nH]c(-c3ccccc3)cn12 [9a, 3-(4-Hydroxy-3-(hydroxymethyl)butyl)-6-phenyl-3,5-dihydro-9H-imidazo[1,2-a]purin-9-one]
antiviral activity (in words) [1]: inactive

O=c1c2ncn(CCC(CO)CO)c2nc2[nH]c(-c3ccc(F)cc3)cn12 [9b, 6-(4-Fluorophenyl)-3-(4-hydroxy-3-(hydroxymethyl)butyl)-3,5-dihydro-9H-imidazo[1,2-a]purin-9-one]
EC50 [2]: 28 to 40.9 µM

O=c1c2ncn(CCC(CO)CO)c2nc2[nH]c(-c3ccc(Cl)cc3)cn12 [9c, 6-(4-Chlorophenyl)-3-(4-hydroxy-3-(hydroxymethyl)butyl)-3,5-dihydro-9H-imidazo[1,2-a]purin-9-one]
antiviral activity (in words) [1]: inactive

Cc1ccc(-c2cn3c(=O)c4ncn(CCC(CO)CO)c4nc3[nH]2)cc1 [9d, 3-(4-Hydroxy-3-(hydroxymethyl)butyl)-6-(p-tolyl)-3,5-dihydro-9H-imidazo[1,2-a]purin-9-one]
antiviral activity (in words) [1]: inactive

O=c1c2ncn(CCC(CO)CO)c2nc2[nH]c(-c3ccc(C(F)(F)F)cc3)cn12 [9e, 3-(4-Hydroxy-3-(hydroxymethyl)butyl)-6-(4-(trifluoromethyl)phenyl)-3,5-dihydro-9H-imidazo[1,2-a]purin-9-one]
IC50 [3]: 12.5 to 76.1 µM
EC50 [2]: 28 to 40.9 µM

O=c1c2ncn(CCC(CO)CO)c2nc2[nH]c(-c3ccc4c(c3)OCO4)cn12 [9i, 6-(Benzo[d][1,3]dioxol-5-yl)-3-(4-hydroxy-3-(hydroxymethyl)butyl)-3,5-dihydro-9H-imidazo[1,2-a]purin-9-one]
EC50 [2]: 28 to 40.9 µM

O=c1c2ncn(CCC(CO)CO)c2nc2[nH]c(-c3ccc(Oc4ccccc4)cc3)cn12 [9j, 3-(4-Hydroxy-3-(hydroxymethyl)butyl)-6-(4-phenoxyphenyl)-3,5-dihydro-9H-imidazo[1,2-a]purin-9-one]
IC50 [3]: 16.9 to 90.4 µM
antiviral activity (in words) [1]: inactive

O=c1c2ncn(CCCCO)c2nc2[nH]c(-c3ccc(C(F)(F)F)cc3)cn12 [10e, 3-(4-Hydroxybutyl)-6-(4-(trifluoromethyl)phenyl)-3,5-dihydro-9H-imidazo[1,2-a]purin-9-one]
cytostatic activity (in words) ([3]; range of cancer cell lines): most effective

O=c1c2ncn(CCCCO)c2nc2[nH]c(-c3cccs3)cn12 [10h, 3-(4-Hydroxybutyl)-6-(thiophen-2-yl)-3,5-dihydro-9H-imidazo[1,2-a]purin-9-one]
stability towards light and air [4]: stable enough to be collected safely

Nc1nc2c(ncn2CCCCO)c(=O)[nH]1 [HBG, hydroxybutylguanine]
inhibition of proliferation of Capan-1 (in words) [5]: slightly inhibited
activity against HCMV (in words) [6]: inactive
affinity for HSV-1 TK (in words) [7]: higher affinity for HSV-1 TK than ACV

Nc1nc2c(ncn2CCC(CO)CO)c(=O)[nH]1 [PCV, penciclovir]
inhibition of proliferation of Capan-1 (in words) [5]: slightly inhibited
toxicity in cell culture [8]: did not exhibit any toxicity
activity against HCMV (in words) [6]: not inhibitory
